Reference: patent US20250129018A1, “PLEUROMUTILIN DERIVATIVES CONTAINING CYCLOALKYL GROUP AND PREPARATION METHODS AND APPLICATIONS THEREOF” (priority 2023, published 2025)
Converted amounts (≈) assume the structure as drawn. Where two headings read alike, the source gives them in different places.

Key:
[1] = test system: MRSA-337371; assay: MIC, two-fold serial dilution method; assay type: cell-based, Methicillin-resistant Staphylococcus aureus; conditions: for MIC: Staphylococcus aureus, read-out: minimum inhibitory concentration
Method: (§1) The pleuromutilin derivatives 1-4 prepared from Example 9 of the present disclosure were determined for their effect on Methicillin-resistant Staphylococcus aureus, Methicillin-resistant Staphylococcus epidermidis, standard strains of Staphylococcus aureus (S. aureus-29213 and S. aureus-25923), clinical strains 1-48 of S. aureus, Escherichia coli, S. agalactiae and S. dysgalactiae equisimilis (S. dysgalactiae-1, S. dysgalactiae-2, S. dysgalactiae-3) and minimum inhibitory concentration (MIC) using a two-fold serial dilution method, and the results were shown in Table 1, Table 2 and Table 3. The standard strains are commercially available from ATCC, and the clinical strains are preserved by Lanzhou Institute of Husbandry and Pharmaceutical Science of Chinese Academy of Agricultural Sciences (Lanzhou, Gansu, China).

[2] = test system: MRSE; assay: MIC, two-fold serial dilution method; assay type: cell-based, Methicillin-resistant Staphylococcus epidermidis; conditions: for MIC: Staphylococcus epidermidis, read-out: minimum inhibitory concentration
Method: as §1

[3] = test system: S. aureus-25923; assay: MIC, two-fold serial dilution method; assay type: cell-based, Staphylococcus aureus; conditions: for MIC: Staphylococcus aureus, read-out: minimum inhibitory concentration
Method: as §1

[4] = test system: S. aureus-29213; assay: MIC, two-fold serial dilution method; assay type: cell-based, Staphylococcus aureus; conditions: for MIC: Staphylococcus aureus, read-out: minimum inhibitory concentration
Method: as §1

[5] = test system: S. dysgalactiae-1; assay: MIC, two-fold serial dilution method; assay type: cell-based, S. dysgalactiae equisimilis; conditions: for MIC: Streptococcus dysgalactiae, read-out: minimum inhibitory concentration
Method: as §1

[6] = test system: S. dysgalactiae-2; assay: MIC, two-fold serial dilution method; assay type: cell-based, S. dysgalactiae equisimilis; conditions: for MIC: Streptococcus dysgalactiae, read-out: minimum inhibitory concentration
Method: as §1

[7] = test system: S. dysgalactiae-3; assay: MIC, two-fold serial dilution method; assay type: cell-based, S. dysgalactiae equisimilis; conditions: for MIC: Streptococcus dysgalactiae, read-out: minimum inhibitory concentration
Method: as §1

[8] = test system: S. aureus-13; assay: MIC, clinical strain; assay type: cell-based, Staphylococcus aureus
Method: as §1

[9] = test system: S. aureus-17; assay: MIC, clinical strain; assay type: cell-based, Staphylococcus aureus
Method: as §1

[10] = test system: S. aureus-20; assay: MIC, clinical strain; assay type: cell-based, Staphylococcus aureus
Method: as §1

[11] = test system: S. aureus-26; assay: MIC, clinical strain; assay type: cell-based, Staphylococcus aureus
Method: as §1

[12] = test system: S. aureus-29; assay: MIC, clinical strain; assay type: cell-based, Staphylococcus aureus
Method: as §1

[13] = test system: S. aureus-37; assay: MIC, clinical strain; assay type: cell-based, Staphylococcus aureus
Method: as §1

[14] = test system: S. aureus-42; assay: MIC, clinical strain; assay type: cell-based, Staphylococcus aureus
Method: as §1

[15] = test system: S. aureus-44; assay: MIC, clinical strain; assay type: cell-based, Staphylococcus aureus
Method: as §1

[16] = test system: MRSA-337371; assay: In vivo antimicrobial activity experiment in mice (systemic MRSA infection, survival); conditions: for protection rate against systemic MRSA infection in mice: 20 mg/kg; for mortality rate / final survival rate: immunosuppressed mice infected i.p. with MRSA-337371; for final survival rate: end of observation
Method: First, an MRSA-337371 cryopreservation solution was taken out from a freezer set at −80° C. and the following steps were performed: • (1) 10 μL of the thawed MRSA-337371 cryopreservation solution was pipetted and added into 6 mL of Tryptic Soy Broth (TSB), and incubated until the bacterial solution had become turbid; • (2) a sterile inoculation loop was dipped into and picked up a small amount of the bacterial solution and was dragged on an MH agar medium for streaking, and then the MH agar medium was inverted and placed in a constant temperature incubator at 37° C. to incubate for 24 hours; • (3) a single colony on the MH agar medium was picked and inoculated in 30 mL of MH liquid medium with an inoculation loop, and placed in a constant temperature shaking incubator at 37° C. for 18 hours for later use. […]
6-week-old, about 20 g-weighted, SPF-grade healthy mice (one half male and the other female) were randomly divided into 5 groups, with 10 mice in each group (one half male and the other female), which were specifically divided into a positive control group (an MRSA infection group), a negative control group (a sterile normal saline control group, which was injected with only 10 mL/kg of drug solvent), drug control groups (a Tiamulin treatment group and a Valnemulin treatment group) and an experimental group (a derivative 2 treatment group). 100 mg/kg of cyclophosphamide was intraperitoneally injected to the mice 4 days before the experiment, and 150 mg/kg of cyclophosphamide injection was injected to the mice 1 day before the experiment to keep the mice in an immunosuppressed state. After fasting for 12 hours, except for the negative control group, the remaining 4 groups were intraperitoneally injected with 0.5 mL of 10^8 CFU/mL bacterial solution, and after 30 min, the drug control groups and the experimental group were intravenously injected with 20 mg/kg of the respective drug. The mice were continued to be reared, and observed to record the deaths daily.
Calculation of survival rate: During the experiment, the morbidity and the mortality in each group of mice was observed and recorded in detail every day, and the survival rate in each group of mice was calculated as:
Survival rate=Number of surviving animals/Number of experimental animals×100%

[17] = day 1, 20 mg/kg intravenously 30 min after infection

Compound | MIC [2] [µg/mL] | in vitro minimum inhibitory concentration [9] | in vitro minimum inhibitory concentration [11] | in vitro minimum inhibitory concentration [12] | in vitro minimum inhibitory concentration [13] | in vitro minimum inhibitory concentration [14] | in vitro minimum inhibitory concentration [15] | protection rate against systemic MRSA infection in mice [16] [%] | mortality rate [16, 17] [%] | mortality rate ([16]; day 2, 20 mg/kg intravenously) [%] | final survival rate ([16]; 20 mg/kg intravenously) [%] | in vitro minimum inhibitory concentration ([8]; in µg/mL) | in vitro minimum inhibitory concentration ([10]; in µg/mL) | further results
C=C[C@]1(C)C[C@@H](OC(=O)CSCCN(CC)CC)[C@]2(C)[C@H](C)CC[C@]3(CCC(=O)[C@H]32)[C@@H](C)[C@@H]1O [Tiamulin] | 0.5 (≈ 1.01 µM) | 0.5 | 0.5 | 1 | 0.5 | 0.5 | 0.5 | 10 | 50 | 80 | 10 |  |  | MIC ([1]; MRSA-337371): 0.25 µg/mL (≈ 0.506 µM); MIC ([3]; S. aureus-25923): 0.25 µg/mL (≈ 0.506 µM); MIC ([4]; S. aureus-29213): 0.5 µg/mL (≈ 1.01 µM); MIC ([5]; S. dysgalactiae-1): 0.25 µg/mL (≈ 0.506 µM); MIC ([6]; S. dysgalactiae-2): 0.25 µg/mL (≈ 0.506 µM); MIC ([7]; S. dysgalactiae-3): 0.25 µg/mL (≈ 0.506 µM); in vitro minimum inhibitory concentration [8]: 0.25 µg/mL; in vitro minimum inhibitory concentration [10]: 0.5 µg/mL; mortality rate ([16]; day 3, 20 mg/kg intravenously): 90%
C=CC1(C)CC(OC(=O)CSC(C)(C)CNC(=O)C2CCC2)C2(C)C(C)CCC3(CCC(=O)C32)C(C)C1O (centres unmarked) [derivative 2] |  | 0.063 | 0.063 | 0.031 | 0.063 | 0.063 | 0.031 | 60 | 10 | 40 | 60 | 0.031 | 0.063 | minimum inhibitory concentration ([1]; MRSA-337371): 0.031 µg/mL (≈ 0.0566 µM); minimum inhibitory concentration [2]: 0.031 µg/mL (≈ 0.0566 µM); minimum inhibitory concentration ([3]; S. aureus-25923): 0.031 µg/mL (≈ 0.0566 µM); minimum inhibitory concentration ([4]; S. aureus-29213): 0.063 µg/mL (≈ 0.115 µM); minimum inhibitory concentration ([5]; S. dysgalactiae-1): 0.031 µg/mL (≈ 0.0566 µM); minimum inhibitory concentration ([6]; S. dysgalactiae-2): 0.031 µg/mL (≈ 0.0566 µM); minimum inhibitory concentration ([7]; S. dysgalactiae-3): 0.031 µg/mL (≈ 0.0566 µM); treatment effect in mice ([16]; compared with marketed drugs): superior to the marketed Tiamulin and Valnemulin
C=C[C@]1(C)C[C@@H](OC(=O)CSC(C)(C)CNC(=O)[C@H](N)C(C)C)[C@]2(C)[C@H](C)CC[C@]3(CCC(=O)[C@H]32)[C@@H](C)[C@@H]1O [Valnemulin] | 0.031 (≈ 0.0549 µM) | 0.063 | 0.063 | 0.063 | 0.063 | 0.063 | 0.063 | 20 | 30 | 80 | 20 | 0.063 | 0.125 | MIC ([1]; MRSA): 0.031 µg/mL (≈ 0.0549 µM); MIC [3]: 0.031 µg/mL (≈ 0.0549 µM); MIC [4]: 0.063 µg/mL (≈ 0.112 µM); MIC [5]: 0.031 µg/mL (≈ 0.0549 µM); MIC [6]: 0.031 µg/mL (≈ 0.0549 µM); MIC [7]: 0.031 µg/mL (≈ 0.0549 µM)
